In patent publication US20070004743A1, “Intranasal administration of mc4-r agonists” (priority 2002, published 2007):

Columns and labels:
ob/ob mice [1] = experiment: Oral (PO) efficacy, food intake in fasted ob/ob mice; format: in vivo; details: 30 mg/kg given orally, FIG. 1B
Experimental: Subjects: ob/ob mice, ˜10 weeks old males. Body weight ˜50 grams.
PO Efficacy Groups: • 1) Vehicle=water • 2) Compound 1=200 μl of 2.5 mg/ml (10 mg/kg) • 3) Compound 1=200 μl of 7.5 mg/ml (30 mg/kg) n=8/group fasted
PO Efficacy Procedure: Mice were fasted overnight. At about 9:00 am the next morning, they were dosed with 200 μl of vehicle or compound solution by oral gavage. Mice were fed with pre-weighed food immediately after dosing, and had access to water the entire time. Food weight was measured at 1, 2, 3, 4, 6, and 24 hours following the dosing.

ob/ob mice [2] = experiment: Intranasal (IN) efficacy, food intake in fasted ob/ob mice; format: in vivo
Experimental: Subjects: ob/ob mice; approximately 10 weeks old males; body weight 50-60 grams.
The mice were divided into the following groups: • 1) Mice received only vehicle. The vehicle was one of the following: water, 10 mM phosphate buffer, 5% captisol in 10 mM phosphate buffer (see Table 1 for details). • 2) Mice received a compound of an embodiment of the present invention at a dosage of 1 mg/kg. • 3) Mice received a compound of an embodiment of the present invention at a dosage of 3 mg/kg. • 4) Mice received a compound of an embodiment of the present invention at a dosage of 6 mg/kg. n=6-8 animals per group
Note: For compound 1 and compound 2, the 1 mg/kg group was not included.
Animals were fasted overnight (˜16 hours), and an MC4-R agonist compound as described in Tables 1-3 was administered at 8:30 am next day. The administration volume was 20-25 μl/50 grams of body weight. […]
IN Efficacy Procedure: Mice were fasted overnight. […] Food weight was measured at 1, 2, 3, 4, 6, and 8 hours following the dosing. […]
(§1) IN Efficacy Procedure: Mice were fasted overnight. […] Food weight was measured at 1, 2, 3, 4, 6, and 8 hours following the dosing.
as §1
IN Efficacy Procedure: Mice were fasted overnight. […] Food weight was measured at 1, 2, 3, 4, and 6 hours following the dosing.

[3] = acute intranasal, humans; ACTH4-10 1 mg, desacetyl-αMSH equimolar 1.68 mg; cited from earlier work
[4] = humans, cited from earlier work; for body fat: intranasal administration
[5] = after intranasal administration

Compound	decrease in cumulative food intake (ob/ob mice [1]) [%]	reduction in cumulative food intake (ob/ob mice [2]; 3 mg/kg administered intranasally, FIG. 1A) [%]	increase in biological effect, intranasal versus oral, dose-normalised (ob/ob mice [2]; ((59%/39%)÷(3/30)), 3 mg/kg intranasal vs 30 mg/kg oral)	processing negativity (PN) of the ERP over frontal and central cortical areas [3]	body fat [4]	insulin levels [4, 5]	plasma leptin levels [4, 5]
COc1ccc(CCNC(=O)c2ccc(N/C(=N/[C@H]3C[C@H]4C[C@@H]([C@@H]3C)C4(C)C)N3CCN[C@@H](C)C3)cc2)c(F)c1 [Compound 1]	39	59	approximately 15.1 times				
desacetyl-αMSH				ineffective	nonsignificant		
melanocyte stimulating hormone/adrenocorticotropin4-10 (MEHFRWG; Corticotropin; UniProt P01189 141-147, looked up, fragment) [MSH/ACTH4-10]				reduced	reduced body fat	decreased	decreased
